Marks after values point to notes of the source that are not given here.
Tests used:
Type in all cases: cell-based
human PBMC = assay: PG levels (PGE2, PGD2, 15d-PGJ2) in culture medium of human PBMC cultured with and without TNF-α, EIA (Example 3); conditions: without TNF-α
Protocol: (§1) Whole blood was collected from donors in EDTA-supplemented pouches at the Etablissement Français du Sang (Brest, France). The PBMC were isolated then from whole blood under sterile conditions within 36 hours after collection. Gradient density centrifugation was carried out on Ficoll (Eurobio). After washing in RPMI 1640 medium (Eurobio), cells were suspended in RPMI 1640 medium supplemented with 10% heat-inactivated fetal calf serum (Eurobio), 2 mM glutamine (D. Dutscher), 100 U of penicillin/ml (D. Dutscher), and 100 μg of streptomycin/ml (D. Dutscher). Monocytes were selected by plastic adherence for 1 h and approximately 10^7 cells were plated in 6-well tissue culture plates (3 mL medium per well). All incubations were performed in a humidified incubator at 37° C. and 5% CO2. Cells were recovered and dispersed in 2 ml fresh incubation medium supplemented with either 7β-hydroxyEPIA, 7β-hydroxy-DHEA, or 7α-hydroxy-DHEA (in 20 μL ethanol) in the presence or absence of 0.01 μg/mL TNF-α (Sigma-Aldrich). Control incubations contained 20 μl ethanol but no steroid. Supernatants were collected after 4 h and 24 hours incubations for measurement of their PG contents and cells were used for subsequent RNA isolation. A single step extraction method using the Trizol Reagent (Invitrogen, Cergy-Pontoise, France) provided total RNA.
Commercially available EIA kits were used for the determination of PGE2 levels (Oxford Biomedical Research, UK) and 15d-PGJ2 levels (Assay designs, Euromedex, France) in culture media. Measurement of PGD2 levels was obtained using the prostaglandin D2-MOX EIA kit (Cayman Chemical, Euromedex). In this case, and prior to assay, the fresh samples were immediately treated with the MOX-HCl reagent, which converted PGD2 into PGD2-MOX, thus preventing any further chemical degradation.
(§2) All assays were carried out in triplicate and results were plotted as mean±S.E.M. One-way analysis of variance was performed followed by Duncan's multiple range tests in order to compare the differences between groups. Differences were considered statistically significant when p<0.05.

m-PGES1 mRNA = m-PGES1 mRNA in human PBMC with and without TNF-α, quantitative RT-PCR; conditions: without TNF-α
Protocol: as §1
(§3) cDNAs were synthesized from TURBO DNase I—treated RNA (Ambion, Huntingdon, UK) using the Superscript first strand synthesis system kit (Invitrogen). RT-PCR amplification mixtures (50 μL) contained 2.5× RealMaster Mix/20×SYBR solution (11.25 μL) (Eppendorf, Le Pecq, France) and 200 nM forward and reverse primers. Reactions were run on a RealPlex ep gradient S mastercycler (Eppendorf). The cycling conditions were 10 minutes at 95° C. and 45 cycles at 95° C., 55° C. and 68° C. for 15 seconds, 30 seconds and 30 seconds, respectively. Each assay included a standard curve of four serial dilution points of control cDNA. The HPRT1 housekeeping gene was used for quantification. All oligonucleotide primers (Table 2) were synthesized by Genecust/Distribio (Evry, France). The specificity of the amplified product was monitored by examining the melting curve of the product and confirmed by analysis on agarose gel electrophoresis.
as §2

COX-2 mRNA = COX-2 mRNA in human PBMC with and without TNF-α, quantitative RT-PCR; conditions: without TNF-α
Protocol: as §1, §3, §2

[1] = test system: rat spinal cord motor neurones; assay: Neurite growth of spinal cord motor neurones in primary culture (anti β-Tubulin, In Cell Analyzer)
Protocol: Rat spinal motor neurones were prepared according to the method described by Martinou et al., 1992 (Martinou J C, Martinou I, Kato AC Cholinergic differentiation factor (CDF/LIF) promotes survival of isolated rat embryonic motoneurons in vitro. Neuron. 1992 April; 8(4):737-44). Briefly, pregnant female Wistar rats of 15 days gestation, were killed by cervical dislocation and the foetuses were removed from the uterus. Their spinal cords were removed and placed in ice-cold medium of Leibovitz (L15, Invitrogen, 11415-049) containing 1% of bovine serum albuminutes (BSA fatty acid free, Eurobio, Les Ulis, France, GXXBSA01-65). Meninges were carefully removed.
The spinal motor neurones were dissociated by trypsinisation for 20 minutes at 37° C. (trypsin EDTA 10× Invitrogen 15400054) diluted in PBS without calcium and magnesium (Invitrogen 2007-03). The reaction was stopped by the addition of Dulbecco Modified Eagle's Media (DMEM, Invitrogen 21969-035) containing DNase I grade II (0.1 mg/ml Roche diagnostic 104159) and 10% foetal calf serum (FCS, Invitrogen 10270098). The suspension was then mechanically dissociated by 3 passages through a 10 ml pipette. Cells were then centrifuged at 580 g for 10 minutes at room temperature. The pellet of dissociated cells was re-suspended in L15 medium and the resulting suspension was enriched in motor neurones by centrifugation at 180×g for 10 minutes at room temperature on a layer of BSA solution (3.5%) in L15 medium. The supernatant was discarded and the pellet was re-suspended in L15 medium supplemented with DNase I (1%). Then the suspension was layered over a cushion of Optiprep (d: 1.06 g/ml; Abcys, Paris, France; 1030061) and centrifuged at 335×g for 15 minutes at room temperature. The upper phase, containing the purified motor neurones, was collected, re-suspended with L15 medium and centrifuged at 800×g for 10 minutes at room temperature. The cell pellet was finally resuspended in a defined culture medium consisting of neurobasal medium supplemented with 2% B27, 2 mM L-Glutamine and Penicillin 50 Ul/ml-Streptomycin 50 μg/ml. Viable cells were counted in a Neubauer cytometer using the trypan blue exclusion test (Sigma T8154) then plated at 30 000 cells/well in 96 well-plates (pre-coated with poly-1-lysine; Nunclon, Invitrogen P5899) and cultured at 37° C. in a humidified air (95%) CO2 (5%) atmosphere.
The culture medium was changed into a defined culture medium after a 12 hours incubation period following the conditions described below:
BDNF 50 ng/ml and 10 ng/ml (in 0.1% DMSO)
After 6 hours, 12 hours and 24 hours of incubation with, cells were fixed for 5 minutes in an ethanol/acetic acid solution (95%/5%) at −20° C. and rinsed 3 times in PBS.
Motor neurones and sensory neurones were labelled by monoclonal anti β-Tubulin antibody (Sigma T8660) diluted at 1:400 in incubation solution (PBS with 5% of FCS and 0.1% of saponin, Sigma S-7900). This antibody specifically labels neurone cell bodies and neurites.
After 2 hours of incubation, the cells were washed in PBS and incubated with Alexa Fluor 488 goat anti mouse IgG (Molecular Probes A11001) diluted at 1:300 in incubation solution to reveal the 8-Tubulin III antibodies.
Analysis of the total length of neurones labelled with anti β-Tubulin antibodies (neurones) were carried out using In Cell Analyzer 1000 3.2.Workstation software.
The results were expressed in percentage compared to the vehicle. Comparison of groups was carried out using the unpaired T test.

CC12CCC3C(C1CCC2=O)[C@@H](O)C=C1C[C@@H](O)CCC13C (stereo partly drawn) [7β-hydroxy-DHEA]
15d-PGJ2 (human PBMC; 1 nM, 4 h): 0.45 ± 0.016 ng/mL | PGD2 (human PBMC; 1 nM, 4 h): 0.18 ± 0.002 ng/mL | PGE2 (human PBMC; 1 nM, 4 h): 0.22 ± 0.003 ng/mL | 15d-PGJ2 (human PBMC; 1 nM, 24 h): 0.66 ± 0.013^a ng/mL | PGD2 (human PBMC; 1 nM, 24 h): 0.21 ± 0.009^a ng/mL | PGE2 (human PBMC; 1 nM, 24 h): 0.22 ± 0.003 ng/mL | 15d-PGJ2 (human PBMC; 10 nM, 4 h): 0.40 ± 0.014 ng/mL | PGD2 (human PBMC; 10 nM, 4 h): 0.14 ± 0.001 ng/mL | PGE2 (human PBMC; 10 nM, 4 h): 0.22 ± 0.013 ng/mL | 15d-PGJ2 (human PBMC; 10 nM, 24 h): 0.62 ± 0.008^a ng/mL | PGD2 (human PBMC; 10 nM, 24 h): 0.24 ± 0.001^a ng/mL | PGE2 (human PBMC; 10 nM, 24 h): 0.24 ± 0.002 ng/mL | 15d-PGJ2 (human PBMC; 100 nM, 4 h): 0.42 ± 0.030 ng/mL | PGD2 (human PBMC; 100 nM, 4 h): 0.19 ± 0.008 ng/mL | PGE2 (human PBMC; 100 nM, 4 h): 0.22 ± 0.002 ng/mL | 15d-PGJ2 (human PBMC; 100 nM, 24 h): 0.56 ± 0.020^a ng/mL | PGD2 (human PBMC; 100 nM, 24 h): 0.34 ± 0.025^a ng/mL | PGE2 (human PBMC; 100 nM, 24 h): 0.24 ± 0.004 ng/mL | mPGES1 (mRNA), mRNA production relative to controls (m-PGES1 mRNA; 1 nM, 4 h): 0.43 ± 0.057^b | mPGES1 (mRNA), mRNA production relative to controls (m-PGES1 mRNA; 1 nM, 24 h): 1.94 ± 0.422^a | mPGES1 (mRNA), mRNA production relative to controls (m-PGES1 mRNA; 10 nM, 4 h): 0.67 ± 0.071^b | mPGES1 (mRNA), mRNA production relative to controls (m-PGES1 mRNA; 10 nM, 24 h): 1.64 ± 0.338^a | mPGES1 (mRNA), mRNA production relative to controls (m-PGES1 mRNA; 100 nM, 4 h): 0.82 ± 0.085^b | mPGES1 (mRNA), mRNA production relative to controls (m-PGES1 mRNA; 100 nM, 24 h): 1.64 ± 0.322^a | COX-2 (mRNA), mRNA production relative to controls (COX-2 mRNA; 1 nM, 4 h): 1.20 ± 0.179 | COX-2 (mRNA), mRNA production relative to controls (COX-2 mRNA; 1 nM, 24 h): 1.76 ± 0.672 | COX-2 (mRNA), mRNA production relative to controls (COX-2 mRNA; 10 nM, 4 h): 1.33 ± 0.039 | COX-2 (mRNA), mRNA production relative to controls (COX-2 mRNA; 10 nM, 24 h): 1.54 ± 0.630 | COX-2 (mRNA), mRNA production relative to controls (COX-2 mRNA; 100 nM, 4 h): 5.09 ± 1.166^a | COX-2 (mRNA), mRNA production relative to controls (COX-2 mRNA; 100 nM, 24 h): 2.78 ± 0.580^a

B1: BDNF: Brain derived nerve growth factor, a specific growth factor for motor neurones; reference compound (protein, UniProt P23560 19-247, looked up)
Neurotrophic factor BDNF …: APMKEANIRGQGGLAYPGVRTHGTLESVNGPKAGSRGLTSLADTFEHVIEELLDEDQKVRPNEENNKDADLYTSRVMLSSQVPLEPPLLFLLEEYKNYLDAANMSMRVRRHSDPARRGELSVCDSISEWVTAADKKTAVDMSGGTVTVLEKVPVSKGQLKQYFYETKCNPMGYTKEGCRGIDKRHWNSQCRTTQSYVRALTMDSKKRIGWRFIRIDTSCVCTLTIKRGR
Neurites length per field, % Vehicle ([1]; 10 ng/ml, 6 hours): 193% | Neurites length per field, Mean ([1]; 10 ng/ml, 6 hours): 489.5 μm | Neurites length per field, % Vehicle ([1]; 10 ng/ml, 12 hours): 173% | Neurites length per field, Mean ([1]; 10 ng/ml, 12 hours): 731.3 μm | Neurites length per field, % Vehicle ([1]; 10 ng/ml, 24 hours): 170% | Neurites length per field, Mean ([1]; 10 ng/ml, 24 hours): 366.1 μm | Neurites length per field, % Vehicle ([1]; 50 ng/ml, 6 hours): 180% | Neurites length per field, Mean ([1]; 50 ng/ml, 6 hours): 457.2 μm | Neurites length per field, % Vehicle ([1]; 50 ng/ml, 12 hours): 152% | Neurites length per field, Mean ([1]; 50 ng/ml, 12 hours): 643.7 μm | Neurites length per field, Mean ([1]; 50 ng/ml, 24 hours): 293.6 μm

From patent publication US20130023504A1, “Modulation of Prostaglandin/Cyclooxygenase Metabolic Pathways” (HUNTER-FLEMING LIMITED, priority 2006, published 2013)
